In ChEMBL document CHEMBL1201862, “PubChem BioAssay data set” (2004):
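Following 48 hours of exposure in 96-well plates, responses at five concentrations were used to interpolate endpoints linearly. Here, GI50 denotes the concentration required for 50% inhibition of growth.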 Calls of active or inactive are those of the source. No stated cut-off is given here; in the data, active = GI50 up to about 1.1 µM and inactive = higher.

Assays:
Experiment in all cases: inhibition of tumour cell growth, NCI panel, 48 h
LOX IMVI = system: LOX IMVI
SN12C = system: SN12C
OVCAR-5 = system: OVCAR-5
EKVX = system: EKVX
IGROV-1 = system: IGROV-1
SK-MEL-28 = system: SK-MEL-28
HOP-62 = system: HOP-62
786-0 = system: 786-0
COLO 205 = system: COLO 205
M14 = system: M14
SNB-19 = system: SNB-19
UO-31 = system: UO-31
Malme-3M = system: Malme-3M
HOP-92 = system: HOP-92
NCI-H460 = system: NCI-H460
CAKI-1 = system: CAKI-1
SF-295 = system: SF-295
ACHN = system: ACHN
HCC 2998 = system: HCC 2998

Measured: GI50

NC(CCCNCc1ccccc1O)C(=O)O (stereo not given)
inactive: LOX IMVI > 100 µM | SN12C > 100 µM | OVCAR-5 > 100 µM | EKVX > 100 µM | IGROV-1 > 100 µM | SK-MEL-28 > 100 µM | HOP-62 > 100 µM | 786-0 > 100 µM | COLO 205 > 100 µM | M14 > 100 µM | SNB-19 > 100 µM | UO-31 > 100 µM | Malme-3M > 100 µM | HOP-92 > 100 µM | NCI-H460 > 100 µM | CAKI-1 > 100 µM | SF-295 > 100 µM | ACHN > 100 µM

O=c1c(C(c2ccc3ccccc3c2)c2c(O)oc3cc(O)ccc3c2=O)c(O)oc2cc(O)ccc12
inactive: LOX IMVI 32.7 µM | SN12C > 100 µM | OVCAR-5 > 100 µM | EKVX > 100 µM | IGROV-1 > 100 µM | SK-MEL-28 > 100 µM | HOP-62 > 100 µM | 786-0 > 100 µM | COLO 205 > 100 µM | M14 > 100 µM | SNB-19 11.2 µM | UO-31 5.22 µM | HOP-92 75 µM | NCI-H460 41.3 µM | CAKI-1 > 100 µM | HCC 2998 > 100 µM | SF-295 > 100 µM

C=C1CCCC(C)(C)[C@@H]1CC/C(C)=C/Cn1c2cccc(=O)c-2nc2ccccc21
inactive: LOX IMVI 1.15 µM | SN12C 1.59 µM | OVCAR-5 3.25 µM | EKVX 4.4 µM | IGROV-1 1.71 µM | SK-MEL-28 4.63 µM | HOP-62 3.48 µM | COLO 205 1.96 µM | SNB-19 4.51 µM | UO-31 2.77 µM | HOP-92 1.94 µM | NCI-H460 1.21 µM | CAKI-1 1.77 µM | HCC 2998 2.06 µM | SF-295 1.45 µM

O=C1C(Cl)N(c2c(Cl)cccc2Cl)C1c1c[nH]c2ccccc12 (stereo not given)
inactive: SN12C > 100 µM | OVCAR-5 > 100 µM | EKVX > 100 µM | IGROV-1 > 100 µM | SK-MEL-28 > 100 µM | HOP-62 > 100 µM | COLO 205 > 100 µM | M14 > 100 µM | SNB-19 > 100 µM | UO-31 > 100 µM | Malme-3M 36.3 µM | HOP-92 > 100 µM | NCI-H460 > 100 µM | SF-295 > 100 µM

CCCCCCCCCCCCCCCCNCCCN(C)CCCN
inactive: LOX IMVI 19.9 µM | SN12C 20 µM | OVCAR-5 16.4 µM | EKVX 20.5 µM | IGROV-1 20.3 µM | SK-MEL-28 13.4 µM | 786-0 15.2 µM | COLO 205 22.1 µM | M14 17.1 µM | SNB-19 17.1 µM | UO-31 17.3 µM | NCI-H460 17.7 µM | CAKI-1 18.1 µM | HCC 2998 18.3 µM | SF-295 17.9 µM | ACHN 19.4 µM

O=c1c(-c2ccccc2)c(SCCCN2CCN(c3cccc(Cl)c3)CC2)n(-c2ccccc2)c(=S)n1-c1ccccc1
inactive: LOX IMVI > 100 µM | OVCAR-5 > 100 µM | EKVX > 100 µM | IGROV-1 > 100 µM | SK-MEL-28 > 100 µM | HOP-62 > 100 µM | COLO 205 > 100 µM | Malme-3M > 100 µM | HOP-92 > 100 µM | NCI-H460 > 100 µM | CAKI-1 25.6 µM | HCC 2998 > 100 µM | SF-295 > 100 µM | ACHN > 100 µM

CCCc1onc(CCC(=O)N(Cc2ccccc2)Cc2ccccc2)c1CC
inactive: LOX IMVI > 100 µM | SN12C > 100 µM | OVCAR-5 > 100 µM | IGROV-1 > 100 µM | HOP-62 > 100 µM | 786-0 > 100 µM | COLO 205 > 100 µM | M14 > 100 µM | Malme-3M > 100 µM | HOP-92 48.8 µM | NCI-H460 > 100 µM | CAKI-1 > 100 µM | HCC 2998 > 100 µM | SF-295 > 100 µM | ACHN > 100 µM

CNC(C)C(O)c1ccc2oc3cc(=O)c4ccccc4c-3nc2c1 (stereo not given)
inactive: LOX IMVI 4.1 µM | SN12C 10.6 µM | OVCAR-5 32.5 µM | EKVX 40 µM | IGROV-1 31.5 µM | SK-MEL-28 11.5 µM | HOP-62 5.82 µM | COLO 205 35.9 µM | M14 4.65 µM | SNB-19 6.44 µM | UO-31 13.8 µM | Malme-3M 5.64 µM | HOP-92 94.6 µM | NCI-H460 4.67 µM | CAKI-1 16.1 µM | HCC 2998 27.9 µM | SF-295 4.59 µM | ACHN 6.25 µM

CCCCCCCCCCCC1CCCC(C)N1 (stereo not given)
inactive: LOX IMVI 18.2 µM | SN12C 53.1 µM | OVCAR-5 80 µM | EKVX 47.3 µM | IGROV-1 61.2 µM | SK-MEL-28 76.6 µM | HOP-62 43.3 µM | COLO 205 36 µM | SNB-19 76.2 µM | UO-31 41 µM | Malme-3M 90.4 µM | HOP-92 17.7 µM | NCI-H460 45.1 µM | CAKI-1 43.2 µM | HCC 2998 46.3 µM | SF-295 77.8 µM

COc1cc(CCc2ccc(OCCN(C)C)cc2)cc(OC)c1OC
inactive: LOX IMVI 34.8 µM | SN12C > 100 µM | OVCAR-5 33.8 µM | EKVX > 100 µM | IGROV-1 > 100 µM | SK-MEL-28 > 100 µM | HOP-62 84.1 µM | 786-0 > 100 µM | COLO 205 20.3 µM | M14 68.4 µM | SNB-19 > 100 µM | UO-31 49.9 µM | Malme-3M 93.3 µM | HOP-92 52.4 µM | NCI-H460 > 100 µM | CAKI-1 > 100 µM | SF-295 > 100 µM | ACHN > 100 µM

Cc1cc(N(CCC#N)CCC#N)ccc1/C=C(\NC(=O)/C=C/c1ccccc1)NC(=O)Nc1ccccc1C
inactive: LOX IMVI 63.4 µM | SN12C 77.3 µM | OVCAR-5 > 100 µM | EKVX 86.1 µM | IGROV-1 68.4 µM | SK-MEL-28 > 100 µM | 786-0 26.8 µM | COLO 205 > 100 µM | M14 > 100 µM | SNB-19 32.7 µM | UO-31 > 100 µM | Malme-3M > 100 µM | HOP-92 23.4 µM | NCI-H460 76.2 µM | CAKI-1 69.7 µM | HCC 2998 > 100 µM | SF-295 25.4 µM | ACHN 55.3 µM

C[C@@]12CC[C@H]3[C@@H]4CCC(=O)N[C@@]4(C)CC[C@@H]3[C@@]1(C)CC[C@H](OC(=O)Cc1ccc(N(CCCl)CCCl)cc1)C2
inactive: LOX IMVI 13.8 µM | SN12C 14.2 µM | OVCAR-5 17.3 µM | EKVX 16.4 µM | IGROV-1 16.2 µM | SK-MEL-28 18.4 µM | HOP-62 16.8 µM | COLO 205 20.4 µM | SNB-19 > 10 µM | UO-31 17.8 µM | Malme-3M 19.5 µM | HOP-92 19 µM | NCI-H460 13.7 µM | CAKI-1 16.5 µM | HCC 2998 16.3 µM | SF-295 17.5 µM
